Converted amounts (≈) assume the structure as drawn. The source made the active and inactive calls. No cut-off for these calls is given here.
How the values were obtained:
[1] = system: Staphylococcus aureus; assay: Antibacterial activity against Staphylococcus aureus MTCC 737 incubated for 16 to 18 hrs by broth dilution method; format: functional; details: time 16-18 hrs
[2] = system: Staphylococcus epidermidis; assay: Antibacterial activity against Staphylococcus epidermidis MTCC 3615 incubated for 16 to 18 hrs by broth dilution method; format: functional; details: time 16-18 hrs
[3] = system: Enterococcus faecium; assay: Antibacterial activity against Enterococcus faecium ATCC 19634 incubated for 16 to 18 hrs by broth dilution method; format: functional; details: time 16-18 hrs
[4] = system: Staphylococcus aureus; assay: Antibacterial activity against methicillin-resistant Staphylococcus aureus ATCC 33591 incubated for 16 to 18 hrs by broth dilution method; format: functional; details: time 16-18 hrs
[5] = system: Staphylococcus aureus; assay: Antibacterial activity against methicillin-resistant Staphylococcus aureus R3545 incubated for 16 to 18 hrs by broth dilution method; format: functional; details: time 16-18 hrs
[6] = system: Staphylococcus aureus; assay: Antibacterial activity against methicillin-resistant Staphylococcus aureus R3890 incubated for 16 to 18 hrs by broth dilution method; format: functional; details: time 16-18 hrs
[7] = system: Staphylococcus aureus; assay: Antibacterial activity against methicillin-resistant Staphylococcus aureus R3889 incubated for 16 to 18 hrs by broth dilution method; format: functional; details: time 16-18 hrs
[8] = system: Staphylococcus aureus; assay: Antibacterial activity against vancomycin-resistant Staphylococcus aureus 1 incubated for 16 to 18 hrs by broth dilution method; format: functional; details: time 16-18 hrs
[9] = system: Staphylococcus aureus; assay: Antibacterial activity against vancomycin-resistant Staphylococcus aureus 4 incubated for 16 to 18 hrs by broth dilution method; format: functional; details: time 16-18 hrs
[10] = system: Enterococcus faecium; assay: Antibacterial activity against vancomycin-resistant Enterococcus faecium 903 incubated for 16 to 18 hrs by broth dilution method; format: functional; details: time 16-18 hrs
[11] = system: Enterococcus faecium; assay: Antibacterial activity against vancomycin-resistant Enterococcus faecium 909 incubated for 16 to 18 hrs by broth dilution method; format: functional; details: time 16-18 hrs
[12] = system: Escherichia coli; assay: Antibacterial activity against Escherichia coli MTCC 443 incubated for 16 to 18 hrs by broth dilution method; format: functional; details: time 16-18 hrs
[13] = Hemolytic activity in human RBC incubated for 1 hr by microplate reader method; format: toxicity, cell-based, Erythrocyte; details: human red blood cells (erythrocytes)
[14] = Cytotoxicity against MDCK cells assessed as cell viability incubated for 24 hrs by alamar blue staining based assay; format: toxicity, Canis lupus familiaris; details: dog
[15] = system: Staphylococcus aureus; assay: Bactericidal activity against methicillin-resistant Staphylococcus aureus ATCC 33591 assessed as eradication of bacterial cells at 8 ug/ml observed within 12 hrs by time killing analysis relative to control; format: functional; details: dose 8 µg/ml
[16] = system: Staphylococcus aureus; assay: Bactericidal activity against methicillin-resistant Staphylococcus aureus ATCC 33591 assessed as log reduction in bacterial titer at 8 ug/ml observed within 12 hrs by time killing analysis; format: functional; details: dose 8 µg/ml
[17] = system: Staphylococcus aureus; assay: Bactericidal activity against vancomycin-resistant Staphylococcus aureus 1 assessed as log reduction in bacterial titer at 8 ug/ml observed after 12 hrs by time killing analysis; format: functional; details: dose 8 µg/ml
[18] = system: Staphylococcus aureus; assay: Bactericidal activity against vancomycin-resistant Staphylococcus aureus 1 assessed as reduction in bacterial count at 16 ug/ml observed after 12 hrs by time killing analysis; format: functional; parameters: scale not given: the % may be the effect or the level left; details: dose 16 µg/ml
[19] = system: Staphylococcus aureus; assay: Antibiofilm activity against methicillin-resistant Staphylococcus aureus ATCC 33591 assessed as reduction in biofilm biomass at 32 ug/ml incubated for 24 hrs by crystal violet staining based analysis relative to control; format: functional; parameters: scale not given: the % may be the effect or the level left; details: dose 32 µg/ml
[20] = system: Staphylococcus aureus; assay: Antibiofilm activity against methicillin-resistant Staphylococcus aureus ATCC 33591 assessed as reduction in biofilm biomass at 64 ug/ml incubated for 24 hrs by crystal violet staining based analysis relative to control; format: functional; parameters: scale not given: the % may be the effect or the level left; details: dose 64 µg/ml
[21] = system: Staphylococcus aureus; assay: Antibiofilm activity against methicillin-resistant Staphylococcus aureus ATCC 33591 assessed as log reduction in bacterial burden in biofilm at 32 ug/ml incubated for 18 hrs; format: functional; details: dose 32 µg/ml
[22] = system: Staphylococcus aureus; assay: Antibiofilm activity against methicillin-resistant Staphylococcus aureus ATCC 33591 assessed as log reduction in bacterial burden in biofilm at 64 ug/ml incubated for 18 hrs; format: functional; details: dose 64 µg/ml
[23] = system: Staphylococcus aureus; assay: Antibiofilm activity against methicillin-resistant Staphylococcus aureus ATCC 33591 assessed as biofilm thickness at 64 ug/ml by Syto-9/PI staining based confocal laser scanning microscopy; format: functional; details: dose 64 µg/ml
[24] = system: Cell membrane; assay: Induction of cytoplasmic membrane depolarization in methicillin-resistant Staphylococcus aureus ATCC 33591 assessed as increase in fluorescence intensity measured after 24 min by DiSC3-5 dye based fluorescence method; details: dose 4-16 µg/ml
[25] = system: Cell membrane; assay: Induction of cytoplasmic membrane depolarization in vancomycin-resistant Staphylococcus aureus 1 assessed as increase in fluorescence intensity and measured after 24 min by DiSC3-5 dye based fluorescence method; details: dose 4-16 µg/ml
[26] = system: Cell membrane; assay: Induction of inner membrane permeabilization in methicillin-resistant Staphylococcus aureus ATCC 33591 assessed as appearance of dead bacterial cells with compromised membrane integrity at 16 ug/ml incubated for 4 hrs by Syto-9/PI staining based confocal microscopy; format: cell membranes; details: dose 16.0 µg/ml
[27] = system: Staphylococcus aureus; assay: Induction of ROS generation in methicillin-resistant Staphylococcus aureus ATCC 33591 assessed as increase in fluorescence intensity by DCFH-DA dye based flow cytometry analysis; format: functional, organism-based; details: dose 8-16 µg/ml
[28] = system: Staphylococcus aureus; assay: Induction of resistance development in methicillin-resistant Staphylococcus aureus ATCC 33591 measured after 10 days by broth dilution method; format: functional; details: time 10.0 day
[29] = system: Cell membrane; assay: Induction of membrane depolarization in methicillin-resistant Staphylococcus aureus ATCC 33591 assessed as depolarized bacterial cells by measuring green fluorescence at 8 ug/ml incubated for 4 hrs by DiOC2(3) dye based flow cytometry analysis (reference value: 27.3%); format: cell membranes; details: dose 8.0 µg/ml
[30] = system: Cell membrane; assay: Induction of membrane depolarization in methicillin-resistant Staphylococcus aureus ATCC 33591 assessed as depolarized bacterial cells by measuring red fluorescence at 8 ug/ml incubated for 4 hrs by DiOC2(3) dye based flow cytometry analysis (reference value: 63.8%); format: cell membranes; details: dose 8.0 µg/ml
[31] = system: Cell membrane; assay: Induction of membrane depolarization in methicillin-resistant Staphylococcus aureus ATCC 33591 assessed as depolarized bacterial cells by measuring red to green fluorescence ratio at 8 ug/ml incubated for 4 hrs by DiOC2(3) dye based flow cytometry analysis; format: cell membranes; details: dose 8.0 µg/ml
[32] = Cytotoxicity against MDCK cells assessed as cell viability at 0.5 to 4 ug/ml incubated for 24 hrs by alamar blue assay relative to control; format: toxicity, cell-based, Canis lupus familiaris; details: dog, at 0.5 to 4 µg/mL, dose 0.5-4 µg/ml, read-out: Activity
[33] = Selectivity index, ratio of HC50 for hemolytic activity in human RBC to MIC for antibacterial activity against Staphylococcus aureus; format: toxicity; details: human red blood cells (erythrocytes), read-out: Selectivity Index
[34] = Selectivity index, ratio of HC50 for hemolytic activity in human RBC to MIC for antibacterial activity against Staphylococcus epidermidis; format: toxicity; details: human red blood cells (erythrocytes), read-out: Selectivity Index
[35] = Selectivity index, ratio of HC50 for hemolytic activity in human RBC to MIC for antibacterial activity against Enterococcus faecium; format: toxicity; details: human red blood cells (erythrocytes), read-out: Selectivity Index
[36] = Selectivity index, ratio of HC50 for hemolytic activity in human RBC to MIC for antibacterial activity against methicillin-resistant Staphylococcus aureus ATCC 33591; format: toxicity; details: human red blood cells (erythrocytes), read-out: Selectivity Index
[37] = Selectivity index, ratio of HC50 for hemolytic activity in human RBC to MIC for antibacterial activity against methicillin-resistant Staphylococcus aureus R3545; format: toxicity; details: human red blood cells (erythrocytes), read-out: Selectivity Index
[38] = Selectivity index, ratio of HC50 for hemolytic activity in human RBC to MIC for antibacterial activity against methicillin-resistant Staphylococcus aureus R3890; format: toxicity; details: human red blood cells (erythrocytes), read-out: Selectivity Index
[39] = Selectivity index, ratio of HC50 for hemolytic activity in human RBC to MIC for antibacterial activity against methicillin-resistant Staphylococcus aureus R3889; format: toxicity; details: human red blood cells (erythrocytes), read-out: Selectivity Index
[40] = Selectivity index, ratio of HC50 for hemolytic activity in human RBC to MIC for antibacterial activity against vancomycin-resistant Staphylococcus aureus 1; format: toxicity; details: human red blood cells (erythrocytes), read-out: Selectivity Index
[41] = Selectivity index, ratio of HC50 for hemolytic activity in human RBC to MIC for antibacterial activity against vancomycin-resistant Staphylococcus aureus 4; format: toxicity; details: human red blood cells (erythrocytes), read-out: Selectivity Index
[42] = Selectivity index, ratio of HC50 for hemolytic activity in human RBC to MIC for antibacterial activity against vancomycin-resistant Enterococcus faecium 903; format: toxicity; details: human red blood cells (erythrocytes), read-out: Selectivity Index
[43] = Selectivity index, ratio of HC50 for hemolytic activity in human RBC to MIC for antibacterial activity against vancomycin-resistant Enterococcus faecium 909; format: toxicity; details: human red blood cells (erythrocytes), read-out: Selectivity Index
[44] = Hemolytic activity in human RBC at 0.5 to 2 ug/ml incubated for 1 hr by microplate reader method relative to control; format: toxicity, cell-based, Erythrocyte; details: human red blood cells (erythrocytes), at 0.5 to 2 µg/mL, dose 0.5-2 µg/ml, read-out: Activity
[45] = system: Staphylococcus aureus; assay: Antibiofilm activity against methicillin-resistant Staphylococcus aureus ATCC 33591 assessed as eradication of bacteria by measuring colocalization of green and red cells at 64 ug/ml by Syto-9/PI staining based confocal laser scanning microscopy; format: functional, organism-based; details: dose 64.0 µg/ml
[46] = system: Staphylococcus aureus; assay: Antibiofilm activity against methicillin-resistant Staphylococcus aureus ATCC 33591 assessed as eradication of enclosed biofilm measuring by reduction in green fluorescence at 32 ug/ml by Syto-9/PI staining based confocal laser scanning microscopy; format: functional, organism-based; details: dose 32.0 µg/ml

CCCCNc1nc(NCCCC)nc(N2CC3CC(C2)CN(c2nc(NCCCC)nc(NCCCC)n2)C3)n1
MIC [1]: 0.5 µg/mL (≈ 0.879 µM) | MIC [2]: 4 µg/mL (≈ 7.03 µM) | MIC [3]: 0.25 µg/mL (≈ 0.44 µM) | MIC [4]: 0.5 µg/mL (≈ 0.879 µM) | MIC [5]: 0.5 µg/mL (≈ 0.879 µM) | MIC [6]: 0.5 µg/mL (≈ 0.879 µM) | MIC [7]: 0.5 µg/mL (≈ 0.879 µM) | MIC [8]: 0.5 µg/mL (≈ 0.879 µM) | MIC [9]: 0.5 µg/mL (≈ 0.879 µM) | MIC [10]: 1 µg/mL (≈ 1.76 µM) | MIC [11]: 1 µg/mL (≈ 1.76 µM) | MIC [12]: 64 µg/mL (≈ 113 µM) | HC50 at 1 h [13]: 810 µg/mL | EC50 at 24 h [14]: 21 µg/mL (≈ 36.9 µM) | Activity [15]: 100% | log(activity) [16]: >5 | log(activity) [17]: 3.5 | Activity [18]: 100% | Activity [19]: 50% | Activity [20]: 40% | log(activity) [21]: 1.7 | log(activity) [22]: ~2 | Activity [23]: 3 um | Activity [24]: Dose-Dependent Effect | Activity [25]: Dose-Dependent Effect | Activity [26]: Active | Activity [27]: Dose-Dependent Effect | Activity [28]: inactive | Activity [29]: 43.2% | Activity [30]: 47.8% | Ratio [31]: 1.1 | viability at 24 h [32]: > 95% | selectivity ratio [33]: 400 | selectivity ratio [34]: 400 | selectivity ratio [35]: 400 | selectivity ratio [36]: 800 | selectivity ratio [37]: 800 | selectivity ratio [38]: 800 | selectivity ratio [39]: 800 | selectivity ratio [40]: 800 | selectivity ratio [41]: 800 | selectivity ratio [42]: 800 | selectivity ratio [43]: 800 | hemolysis at 1 h [44]: 0% | Activity [45]: Active

CC(=O)NC[C@H]1CN(c2ccc(N3CCOCC3)c(F)c2)C(=O)O1 [LINEZOLID]
MIC [2]: 2 µg/mL (≈ 5.93 µM) | MIC [3]: 4 µg/mL (≈ 11.9 µM) | MIC [8]: 1 µg/mL (≈ 2.96 µM) | MIC [9]: 1 µg/mL (≈ 2.96 µM) | MIC [10]: 32 µg/mL (≈ 94.9 µM) | MIC [11]: 2 µg/mL (≈ 5.93 µM)

CN[C@H](CC(C)C)C(=O)N[C@H]1C(=O)N[C@@H](CC(N)=O)C(=O)N[C@H]2C(=O)N[C@H]3C(=O)N[C@H](C(=O)N[C@H](C(=O)O)c4cc(O)cc(O)c4-c4cc3ccc4O)[C@H](O)c3ccc(c(Cl)c3)Oc3cc2cc(c3O[C@@H]2O[C@H](CO)[C@@H](O)[C@H](O)[C@H]2O[C@H]2C[C@](C)(N)[C@H](O)[C@H](C)O2)Oc2ccc(cc2Cl)[C@H]1O [VANCOMYCIN]
MIC [8]: 512 µg/mL (≈ 353 µM) | MIC [9]: 512 µg/mL (≈ 353 µM) | MIC [10]: 1020 µg/mL (≈ 707 µM) | MIC [11]: 512 µg/mL (≈ 353 µM) | Activity [46]: inactive

Source: ChEMBL document CHEMBL5532755, “Unveiling the potent activity of a synthetic ion transporter against multidrug-resistant Gram-positive bacteria and biofilms” (RSC Med Chem, 2024)
